From US12053506B2, “Romo1-derived antimicrobial peptides and variants thereof” (priority 2019, dated 2024)
No end group written: not given here.

Assays:
[1] = tested on: Pseudomonas aeruginosa (ATCC 27853); format: cell-based
How it was run: (§1)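 Bacteria grown in 3% TSB at 37° C, diluted in 10 mM sodium phosphate/1% TSB to 1×10^5 CFU/ml in wells, exposed to peptides (0–300 μg/ml) for 1 h at 37° C. Mixtures plated on TS agar for 18 h at 37° C; MBC is the lowest concentration giving no colonies.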

[2] = tested on: Staphylococcus aureus (ATCC 29213); format: cell-based
How it was run: as §1

CRPA = assay: MBC, evaluation of antibacterial activities of KU-5878 variants; format: cell-based; conditions: Tables 11-15, no unit printed
[3] = tested on: Staphylococcus aureus, Pseudomonas aeruginosa, methicillin-resistant Staphylococcus aureus and multidrug-resistant Pseudomonas aeruginosa; assay: Bacteria remaining in the blood of intravenously infected mice; format: in vivo, mice (C57BL/6); conditions: 10 mg/kg intravenous 1 hour after infection; blood collected 40 minutes after injection; compared with LL-37, magainin 2, daptomycin
Procedure: Specifically, Staphylococcus aureus, Pseudomonas aeruginosa, methicillin-resistant Staphylococcus aureus and multidrug-resistant Pseudomonas aeruginosa was cultured in 3% (w/v) TSB liquid medium at 37° C. and 200 rpm for 4 hours, and then further cultured under the same conditions for 3 hours to a concentration of 5×10^9 CFU/ml. Strain solutions were prepared by diluting each of the further cultured strains with PBS solution to a final concentration of 1×10^5 CFU/μl.
Next, 100 μl of each strain solution was injected intravenously (IV) into the tail vein of each of 10-week-old male mice (C57BL/6). After one hour, KU-5878 was intravenously injected at a concentration of 10 mg/kg. As a control, PBS was intravenously injected at a concentration of 10 mg/kg, and as a positive control, LL-37, magainin 2, or daptomycin was intravenously injected at a concentration of 10 mg/kg.
40 minutes after the intravenous injection of each drug, about 1 cm from the tail end of each mouse was cut using surgical scissors, and 10 μl of the blood at the end of the cut was collected and diluted in PBS. The diluted blood sample was plated on a previously prepared TSB agar plate and incubated in an incubator at 37° C. for 18 hours, and the formed colonies were counted for comparison.

[4] = tested on: Staphylococcus aureus, Pseudomonas aeruginosa, Klebsiella pneumoniae and Acinetobacter baumannii; assay: Survival rate of mice injected with gram-positive or gram-negative bacteria; format: in vivo, mice (C57BL/6); conditions: FIG. 3, bacteria only 0 to 20%
Excerpt: Following Example 2-2, in order to evaluate the antibacterial activity of KU-5878 peptide in vivo, Staphylococcus aureus as gram-positive bacteria, Pseudomonas aeruginosa, Klebsiella pneumoniae and Acinetobacter baumannii as gram-negative bacteria, and multidrug-resistant Pseudomonas aeruginosa, methicillin-resistant Staphylococcus aureus, multidrug-resistant Klebsiella pneumoniae and multidrug-resistant Acinetobacter baumannii as multidrug-resistant bacteria were selected, and the following experiment was performed.
The experimental method is as described in Example 2-2 above. For a positive group, each type of the bacteria was injected into mice, and after 24 hours, 30 mg/kg of imipenem, a carbapenem-based antibiotic, was injected intraperitoneally (IP), and then the same amount of imipenem was administered intraperitoneally a total of 4 times at 12-hour intervals. The survival rates of each control group and the experimental group were measured at 24-hour intervals.

**Q.** How did the “MBC (μg/ml) value against Pseudomonas aeruginosa” value ([1]; ATCC 27853) turn out when KTMMQSGGTFGTFMAIGMGIR [KU-5878] was run?
**A.** 100 µg/mL

**Q.** What about the “MBC value (μg/ml) against Pseudomonas aeruginosa” value ([1]; ATCC 27853, 1 h) of the same sequence?
**A.** 100 µg/mL

**Q.** What about the MBC Pseudomonas aeruginosa ([1]; Tables 11-15, no unit printed) of the same sequence?
**A.** 100 µg/mL

**Q.** What about the “MBC (μg/ml) value against Staphylococcus aureus” value ([2]; ATCC 29213) of the same sequence?
**A.** 100 µg/mL

**Q.** What about the “MBC value (μg/ml) against Staphylococcus aureus” value ([2]; ATCC 29213, 1 h) of the same sequence?
**A.** 100 µg/mL

**Q.** And the MBC Staphylococcus aureus ([2]; Tables 11-15, no unit printed)?
**A.** 100 µg/mL

**Q.** And the MBC CRPA (CRPA)?
**A.** 110 µg/mL

**Q.** What about the “number of bacteria remaining in the blood vessels of the mice” value [3] of the same sequence?
**A.** most greatly decreased

**Q.** What about the “survival rate of the mice” value [4] of the same sequence?
**A.** 60%
